Patent publication US20210236523A1, “P[…] FOR HEADACHE DISORDERS” (priority 2020, published 2021)

How the values were obtained:
[1] = test system: patients with migraine headache; experiment: Migraine study: acute physiologic and psychotropic effects and adverse events of drug administration; assay type: in vivo, human
Description: Blood pressure, heart rate, and peripheral oxygenation were measured at baseline and throughout experimental sessions. Acute headache pain and associated symptoms (if present) and drug effects (overall, anxiety/fear, sleepiness/sedation, nausea, joy/intense happiness, peace/harmony) were self-reported on a 0-3 scale (0=none, 1=minimal, 2=moderate, 3=definite) at baseline and throughout experimental sessions. Psychedelic effects were self-reported at the end of experimental sessions using the validated 5-Dimensional Altered States of Consciousness (5D-ASC) scale. Subjects were discharged from the NSU at 6 hours after capsule ingestion or once physiological and psychological drug effects had resolved. Only one subject remained in the NSU for an additional 60 minutes until drug effects resolved. Subjects were not allowed to drive themselves after experimental sessions. Emergency contacts, including 24-hour/7-day psychiatry services, were provided to all subjects.
Telephone follow-up was performed the day after and weekly for two weeks after each experimental session, and at 2 and 3 months after the second experimental session.
Statistical analyses were performed using SAS, version 9.4 (SAS Institute Inc., Cary, N.C.) and figures were produced with GraphPad Prism (GraphPad Software Inc., La Jolla, Calif.). All statistical tests were two-sided with an overall pre-hypothesis alpha threshold of 0.05. Measures of error are shown as standard error about the mean (SEM). The primary clinical outcome measure was change in weekly migraine days (WMD) from baseline. This and the secondary measures of migraine burden—changes from baseline in weekly migraine attacks (WMA), pain severity, light sensitivity severity, sound sensitivity severity, nausea/vomiting severity, attack-related functional impairment, and weekly migraine abortive use—were calculated and compared via paired t-test. The time to the next two migraine attacks were also compared between placebo and psilocybin via paired t test. Acute effects of drug administration on mean arterial pressure (MAP), heart rate, peripheral oxygenation, and general drug effects were analyzed via 2-way repeated measures ANOVA with post-hoc Fisher least significant difference (LSD) test (when the interaction existed). Psychotropic effects as measured by the 5D-ASC scale were calculated as a percent of the total possible score 21, 22, as well as the percent possible score of each of the scale's five dimensions—oceanic boundlessness (OBN), dread of ego dissolution (DED), visionary restructuralization (VRS), acoustic alterations (AUA), and vigilance reduction (VIR). Percent possible scores were then compared between placebo and psilocybin via paired t-test. In order to test the assumption that psychotropic effects are unrelated to effects on migraine activity, the maximum rating of general drug effects and the percent total possible 5D-ASC scale score were correlated to the percent change in WMD after psilocybin administration. The number of adverse events (AEs) were compared between placebo and psilocybin using inference on proportions.

[2] = test system: patients with cluster headache; experiment: Randomized placebo-controlled study of a 3-dose psilocybin pulse regimen in cluster headache: headache diary; assay type: in vivo, human; conditions: for effect size for change in weekly cluster attacks: psilocybin vs placebo; for change in the number of weekly cluster attacks / number of weekly cluster attacks: 3-dose pulse 0.143 mg/kg
Source text: In this exploratory study, a patient-informed regimen (a low dose of psilocybin (between 1-2 grams dried P. cubensis taken three times, approximately 5 days apart each)) was studied in patients with cluster headache in a controlled, laboratory setting. The information gained from this study serves to (1) verify longstanding anecdotal reports and (2) design larger, more definitive studies examining the safety and efficacy of psilocybin in cluster headache.
This study was registered on clinicaltrials.gov (NCT02981173) with approvals from the Human Studies Subcommittee of Veterans Affairs Connecticut Healthcare System (VACHS) and the Human Investigations Committee of Yale University School of Medicine. The study was conducted under an approved Investigational New Drug application (#124,874) with the US Food & Drug Administration, under a Schedule 1 license (author DCD). Psilocybin was provided by author NC from the University of Wisconsin. Weight-based capsules of psilocybin 0.143 mg/kg and matching placebo (microcrystalline cellulose; obtained from Fagron (St. Paul, Minn.)) were compounded into identical blue gel capsules by the VACHS Investigational Research Pharmacy for each subject.
Adults (age 21 to 65 years, inclusive) with cluster headache as defined by the International Classification of Headache Disorders III-beta 8 were eligible to participate in this study. Both chronic and episodic cluster headache subtypes were eligible, however certain conditions were required to ensure proper interpretation of the study intervention. For both chronic and episodic subjects, an attack frequency of approximately 1 attack per day or more was required. For episodic subjects, the typical cluster period was required to last approximately 2 months or more and study participation could only take place when at least 6 weeks of the period was anticipated to remain. Excluded medical conditions included, but were not limited to, uncontrolled hypertension, coronary artery disease, cardiac arrhythmia, cerebrovascular disease, and serious central or peripheral nervous system or spinal disease. Excluded psychiatric conditions included, but were not limited to, psychotic or manic disorders in the subject or a first degree relative and substance abuse within the past 3 months. Any prior serious adverse event with psilocybin, LSD, or related compounds (i.e., mescaline) was also exclusionary. Prior exposure to psilocybin or related compounds through recreational or medicinal use or through participation in other research studies was not excluded, although any use in the past 3 months was prohibited. Alcohol use within one week of the first experimental test day was prohibited. Caffeine and nicotine were not restricted. Subjects were required to be off serotonergic antidepressants (selective serotonin reuptake inhibitors, serotonin and norepinephrine reuptake inhibitors, monoamine oxidase inhibitors, tricyclics) for at least 6 weeks and serotonergic antiemetics (i.e., ondansetron) for at least 2 weeks from the first test day. Vasoconstrictive medications (i.e., sumatriptan, pseudoephedrine) could be used during the study period, but not within 5 half-lives of said medication and not within 5 half-lives of psilocybin (15 hours) after each test day. Triptans were also not allowed more than twice weekly.
Subjects were instructed to maintain a headache diary starting 2 weeks before until 8 weeks after the first experimental session. Subjects documented every cluster attack, including date, onset, offset, pain intensity (0-10 visual analog scale (VAS): 0=none, 1=minimal, 5=moderate, 9=severe, 10=worst imaginable). The abortive treatments taken and their effects were also recorded in the diary. Only the 14 days prior to the first experimental session (baseline) and the 56 days after the first experimental session (inclusive) were counted in the final analysis. […]

## CN(C)CCc1c[nH]c2cccc(OP(=O)(O)O)c12 [psilocybin, 3-(2-dimethylaminoethyl)-1H-indol-4-yl] dihydrogen phosphate]
[1]; at 1.5 hours after capsule ingestion, 0.143 mg/kg oral, mean (SEM)
  maximum increase in mean arterial pressure (MAP) over placebo: 12.2 (4.7) mmHg
[1]; during experimental session, 0.143 mg/kg oral
  tingling/paresthesia, cold/shivering, dry mouth, and acute migraine reported: one subject each
[1]; during experimental sessions
  lightheadedness and generalized tension/sore muscles, numbers vs placebo: not significant
[1]; during experimental sessions, 0.143 mg/kg oral
  drug x time interaction on heart rate or peripheral oxygenation: no significant interactions
[1]; end of experimental test day, 0.143 mg/kg oral, mean (SEM), P=0.0263 vs placebo
  5D-ASC scale, percent possible score for the total scale score: 19.35%
[1]; in the 24 hours following the start of experimental sessions
  tension/sore muscles, general headache attack, and migraine attack vs placebo: no significant differences
[1]; migraine study, single oral dose 0.143 mg/kg
  serious or unexpected adverse events: no serious or unexpected AEs
[1]; starting at 45 minutes until 4 hours after capsule ingestion, 0.143 mg/kg oral
  MAP vs placebo (post-hoc Fisher LSD): significant increase
[2]; chronic cluster headache subjects, 8 weeks
  effect size for change in weekly cluster attacks: −1.20
[2]; chronic cluster headache subjects, across 8 weeks, P=0.080 vs placebo
  change in the number of weekly cluster attacks: −6.08 (2.29)
[2]; chronic cluster headache subjects, across 8 weeks, group baseline 8.67 (2.42)
  number of weekly cluster attacks: 4.58 (0.77)
[2]; over the first 3 weeks, episodic and chronic combined, P=0.017 vs placebo
  change in the number of weekly cluster attacks: −6.03 (2.23)
[2]; over the first 3 weeks, episodic and chronic patients combined, group baseline 9.30 (1.49)
  number of weekly cluster attacks: 3.50 (1.12)
[2]; three weeks
  effect size for change in weekly cluster attacks: −1.89
